Measurements published in patent US8026278B2, “Inhibitors of pyruvate kinase as therapeutic agents for cancer” (priority 2005, dated 2011).

How the values were obtained:
[1] = tested on: MCF7 (breast) cancer cell line; test: MTT assay, inhibition of cell proliferation, MCF7; assay type: cell-based; settings: MCF7, 72 hours
Method: (§1) The compounds of the invention were tested for their inhibition potential of cell proliferation. MCF7 (breast) and SF268 (glioma) cancer cell lines were incubated with different concentrations of the compounds and their viability was assessed using an MTT (3-(4,5-dimethylthiazol-2-yl)-2,5-diphenyltetrazolium bromide) assay. The MTT assay is well known in the art (see for example Slater et al., Biochim. Biophys. Acta 77 (1963) 383). The cells were incubated with a given inhibitor for 72 hours and assayed.

[2] = biological target: T1, Pyruvate kinase isolated from rabbit muscle (Oryctolagus cuniculus, UniProt P11974); test: Inhibition of pyruvate kinase (indirect assay quantifying ADP production); assay type: biochemical
T1 construct: Pyruvate kinase isolated from rabbit muscle; purchased Sigma-Aldrich; host or cells: rabbit muscle (tissue-derived enzyme)
T1 sequence (P11974 whole entry): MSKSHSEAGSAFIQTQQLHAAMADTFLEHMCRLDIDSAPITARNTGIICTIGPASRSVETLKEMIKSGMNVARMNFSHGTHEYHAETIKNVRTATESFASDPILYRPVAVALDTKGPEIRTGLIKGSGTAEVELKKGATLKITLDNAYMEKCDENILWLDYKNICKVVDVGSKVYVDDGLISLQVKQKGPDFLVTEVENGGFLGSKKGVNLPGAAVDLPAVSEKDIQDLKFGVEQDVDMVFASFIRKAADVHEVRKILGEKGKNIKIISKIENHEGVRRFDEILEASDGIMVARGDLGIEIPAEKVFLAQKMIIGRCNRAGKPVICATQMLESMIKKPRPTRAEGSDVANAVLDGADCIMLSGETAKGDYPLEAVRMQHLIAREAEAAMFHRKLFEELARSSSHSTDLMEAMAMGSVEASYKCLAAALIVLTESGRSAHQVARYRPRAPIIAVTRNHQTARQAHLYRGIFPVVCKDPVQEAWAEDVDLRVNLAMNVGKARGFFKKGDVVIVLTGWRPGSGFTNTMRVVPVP
Method: The compounds E-3-chlorophosphoenolpyruvate ditriethyl-ammonium salt (ECPDAT), Z-3-chlorophosphoenolpyruvate tritriethyl-ammonium salt (CPTP), phosphoenol-3-bromo-pyruvic acid mono-cyclohexyl ammonium salt (PBPA), 2-bromooxoethylphosphonic acid mono-cyclohexyl-ammonium salt (BOEPA) and 3-bromopyruvic acid (BrPyA) were tested for their efficiency at inhibiting pyruvate kinase. Pyruvate kinase isolated from rabbit muscle was purchased from Sigma-Aldrich. Pyruvate kinase was assayed indirectly by quantifying ADP production formed in the reaction ATP+pyruvate to ADP+phosphoenolpyruvate. Inhibitors were added to the reaction mixture immediately before the reaction was started by the addition of ATP.

[3] = tested on: SF268 (glioma) cancer cell line; test: MTT assay, inhibition of cell proliferation, SF268; assay type: cell-based; settings: SF268, 72 hours
Method: as §1

O=C(CBr)P(=O)(O)O [BOEPA]
Inhibition of cell proliferation [1]: inhibited cell proliferation | % (A-Blank relative to control) ([1]; 10 uM): 93.37% | A-Blank (Average-Blank) O.D. at 570 nm ([1]; 10 uM): 0.7642 O.D. | Average O.D. reading at 570 nm ([1]; 10 uM): 0.8518 O.D. | % (A-Blank relative to control) ([1]; 25 uM): 93.769% | A-Blank (Average-Blank) O.D. at 570 nm ([1]; 25 uM): 0.7675 O.D. | Average O.D. reading at 570 nm ([1]; 25 uM): 0.855 O.D. | % (A-Blank relative to control) ([1]; 50 uM): 91.142% | A-Blank (Average-Blank) O.D. at 570 nm ([1]; 50 uM): 0.746 O.D. | Average O.D. reading at 570 nm ([1]; 50 uM): 0.8335 O.D. | % (A-Blank relative to control) ([1]; 75 uM): 93.28% | A-Blank (Average-Blank) O.D. at 570 nm ([1]; 75 uM): 0.7635 O.D. | Average O.D. reading at 570 nm ([1]; 75 uM): 0.851 O.D. | % (A-Blank relative to control) ([1]; 100 uM): 91.57% | A-Blank (Average-Blank) O.D. at 570 nm ([1]; 100 uM): 0.7495 O.D. | Average O.D. reading at 570 nm ([1]; 100 uM): 0.837 O.D. | % (A-Blank relative to control) ([1]; 200 uM): 89.249% | A-Blank (Average-Blank) O.D. at 570 nm ([1]; 200 uM): 0.7305 O.D. | Average O.D. reading at 570 nm ([1]; 200 uM): 0.818 O.D. | % (A-Blank relative to control) ([1]; 300 uM): 56.2004% | A-Blank (Average-Blank) O.D. at 570 nm ([1]; 300 uM): 0.46 O.D. | Average O.D. reading at 570 nm ([1]; 300 uM): 0.5475 O.D. | % (A-Blank relative to control) ([1]; 500 uM): 36.68% | A-Blank (Average-Blank) O.D. at 570 nm ([1]; 500 uM): 0.3003 O.D. | Average O.D. reading at 570 nm ([1]; 500 uM): 0.3877 O.D. | inhibition at 0.1 µM [2]: 0% | inhibition at 1 µM [2]: 0% | inhibition at 10 µM [2]: 0% | Inhibition of cell proliferation [3]: inhibited cell proliferation | % (A-Blank relative to control) ([3]; 10 uM): 101.2806% | A-Blank (Average-Blank) O.D. at 570 nm ([3]; 10 uM): 0.692 O.D. | Average O.D. reading at 570 nm ([3]; 10 uM): 0.7792 O.D. | % (A-Blank relative to control) ([3]; 25 uM): 99.49% | A-Blank (Average-Blank) O.D. at 570 nm ([3]; 25 uM): 0.68 O.D. | Average O.D. reading at 570 nm ([3]; 25 uM): 0.767 O.D. | % (A-Blank relative to control) ([3]; 50 uM): 100.8% | A-Blank (Average-Blank) O.D. at 570 nm ([3]; 50 uM): 0.689 O.D. | Average O.D. reading at 570 nm ([3]; 50 uM): 0.776 O.D. | % (A-Blank relative to control) ([3]; 75 uM): 96.52% | A-Blank (Average-Blank) O.D. at 570 nm ([3]; 75 uM): 0.66 O.D. | Average O.D. reading at 570 nm ([3]; 75 uM): 0.747 O.D. | % (A-Blank relative to control) ([3]; 100 uM): 90.45% | A-Blank (Average-Blank) O.D. at 570 nm ([3]; 100 uM): 0.618 O.D. | Average O.D. reading at 570 nm ([3]; 100 uM): 0.705 O.D. | % (A-Blank relative to control) ([3]; 200 uM): 53.055% | A-Blank (Average-Blank) O.D. at 570 nm ([3]; 200 uM): 0.3625 O.D. | Average O.D. reading at 570 nm ([3]; 200 uM): 0.4498 O.D. | % (A-Blank relative to control) ([3]; 300 uM): 12.221% | A-Blank (Average-Blank) O.D. at 570 nm ([3]; 300 uM): 0.0835 O.D. | Average O.D. reading at 570 nm ([3]; 300 uM): 0.1708 O.D. | % (A-Blank relative to control) ([3]; 500 uM): 5.196% | A-Blank (Average-Blank) O.D. at 570 nm ([3]; 500 uM): 0.0355 O.D. | Average O.D. reading at 570 nm ([3]; 500 uM): 0.1227 O.D.
